Measurements reported in patent US9334267B2, “RAF inhibitor compounds” (Deciphera Pharmaceuticals, LLC, priority 2012, dated 2016).

Experiments:
human B-Raf V600E = target: T1, human B-Raf V600E (Homo sapiens, UniProt P15056, V600E); assay: Enzymatic assay of B-Raf V600E kinase activity (Raf/MEK1 ATPase, coupled PK/LDH, A340); type: biochemical; conditions: read-out: Enzyme IC50, nM B-Raf V600E
T1 construct: B-RafV600E (residues 433-726 containing V600E mutation) containing an N-terminal purification tag is expressed and purified; made in house
T1 sequence (P15056 433-726 V600E): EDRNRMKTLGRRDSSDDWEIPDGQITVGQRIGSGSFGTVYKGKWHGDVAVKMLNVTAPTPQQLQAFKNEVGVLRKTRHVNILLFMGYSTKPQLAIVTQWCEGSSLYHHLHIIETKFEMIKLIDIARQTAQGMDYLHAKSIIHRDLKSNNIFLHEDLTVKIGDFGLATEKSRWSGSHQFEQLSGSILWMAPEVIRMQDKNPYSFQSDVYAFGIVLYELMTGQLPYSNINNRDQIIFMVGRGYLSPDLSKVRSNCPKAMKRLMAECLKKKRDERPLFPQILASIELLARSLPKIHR
Protocol: Test compounds are evaluated for their inhibitory activities against one or more of human wild type B-Raf, human wild type C-Raf, human B-Raf V600E, human B-Raf V600E+T529I or human B-Raf V600E+G468A. T529I is a threonine to isoleucine B-Raf gatekeeper mutation and G468A is a B-Raf secondary mutation at G1403C in exon 11. The enzymatic assays of B-Raf, C-Raf and B-Raf mutations evaluate a property of Raf and MEK1 complex, which in the presence of ATP, catalyzes an enhanced ATP hydrolysis (Rominger, et al, Arch. Biochem. Biophys. 2007, 464: 130-137; US Patent Publication No. 2006/0211073). The ADP formed is monitored by the well-known coupled PK/LDH (pyruvate kinase/lactate dehydrogenase) system in the form of NADH oxidation, which can be monitored and detected spectrophotometrically by absorbance at 340 nm (A340; for principal of the method see Schindler et al, Science, 2000, 289: 1938-1942). Raf activated MEK1 ATPase activity is a property shared by all forms of Raf proteins.
B-RafV600E (residues 433-726 containing V600E mutation) containing an N-terminal purification tag is expressed and purified essentially as described previously (Wan et al, Cell, 2004, 116, 855-867).
Test compounds are evaluated for their inhibitory activities against one or more of wild type B-Raf, wild type C-Raf, B-Raf V600E, B-Raf V600E+T529I and B-Raf V600E+G468A. T529I is a B-Raf gatekeeper mutation and G468A is a B-Raf secondary mutation. The enzymatic assays of B-Raf, C-Raf and B-Raf mutations evaluate a property of Raf and MEK1 complex, which in the presence of ATP, catalyzes an enhanced ATP hydrolysis (Rominger, et al, Arch. Biochem. Biophys. 2007, 464: 130-137). The ADP formed is monitored by the well-known coupled PK/LDH (pyruvate kinase/lactate dehydrogenase) system in the form of NADH oxidation, which can be monitored and detected by absorbance at 340 nm (A340; for principal of the method see Schindler et al, Science, 2000, 289: 1938-1942). Raf activated MEK1 ATPase activity is a property shared by all forms of Raf proteins. In the B-Raf wild type enzymatic assay, the reaction mixture contains 1.2 nM B-Raf, 30 nM MEK1, 1000 uM ATP, 3.5 units (per 100 ul) of PK, 5 units (per 100 ul) of LDH, 1 mM phosphoenol pyruvate (PEP), and 280 uM of NADH. In the C-Raf assay, the reaction mixture contains 0.6 nM C-Raf, 26 nM MEK1, 2000 uM ATP, and the same amount of PK, LDH, PEP and NADH as above. In the B-Raf V600E assay, the reaction mixture contains […] B-Raf V600E, 26 nM MEK1, 200 uM ATP and the same amount of PK, LDH, PEP and NADH as above. In the B-RafV600E+T529I assay, the reaction mixture contains 6.2 nM B-Raf V600E+T529I, 30 nM MEK1, 200 uM ATP and the same amount of PK, LDH, PEP and NADH as above. In the B-Raf V600E+G468A assay, the reaction mixture contains 3.5 nM B-Raf, 30 nM MEK1, 200 uM ATP and the same amount of PK, LDH, PEP and NADH as above. All assays are started by mixing the above mixture with test compound and monitoring at A340 continuously for approximately 5 hr. […] In the aforementioned assays, the enzyme constructs can be screened prior to or after cleavage of the N-terminal purification tag.

HT-29 cells = assay: HT-29 cell proliferation assay (resazurin); type: cell-based; conditions: Homo sapiens, V600E mutation, read-out: Cell Proliferation Inhibition IC50, nM HT-29
Protocol: HT-29 cells (catalog #HTB-38) are obtained from the American Type Culture Collection (ATCC, Manassas, Va.). Briefly, cells are grown in McCoy's 5A supplemented with 10% characterized fetal bovine serum (Invitrogen, Carlsbad, Calif.), and 1% Penicillin/Streptomycin/L-Glutamine at 37 degrees Celsius, 5% CO2, and 95% humidity. Cells are allowed to expand until reaching 75-90% confluency at which point they are subcultured or harvested for assay use. A serial dilution of test compound is dispensed into a 384-well black clear bottom plate in triplicate. One thousand two-hundred fifty cells are added per well in 50 μL complete growth medium in the 384-well plate. Plates are incubated for 67 hours at 37 degrees Celsius, 5% CO2, and 95% humidity. At the end of the incubation period, 10 μL of a 440 μM solution of resazurin (Sigma, St. Louis, Mo.) in PBS is added to each well of the plate and plates are incubated for an additional 5 hours at 37 degrees Celsius, 5% CO2, and 95% humidity. Plates are read on a Synergy2 reader (Biotek, Winooski, Vt.) using an excitation of 540 nm and an emission of 600 nm. Data is analyzed using Prism software (Graphpad, San Diego, Calif.) to calculate IC50 values.
The A375, HT-29, and Colo-205 cells (ATCC) harbor a V600E mutation.

HCT-116 cells = assay: HCT-116 cell proliferation assay (resazurin); type: cell-based; conditions: Homo sapiens, K-Ras mutation B-Raf wild type, read-out: Cell Proliferation Inhibition IC50, nM HCT-116

Structure (SMILES)	IC50 (human B-Raf V600E) [nM]	IC50 (HT-29 cells) [nM]	IC50 (HCT-116 cells) [nM]
Cc1cc(F)c(NC(=O)NCCC(C)(C)C)cc1-c1cc2cnc(N)nc2nc1C [Example 20, 1-(5-(2-Amino-7-methylpyrido[2,3-d]pyrimidin-6-yl)-2-fluoro-4-methylphenyl)-3-(3,3-dimethylbutyl)urea]	< 150	< 100	100 to 1000
Cc1cc(F)c(NC(=O)NCCC(C)(C)C)cc1-c1cc2cnc(NCCN3CCOCC3)nc2nc1C [Example 21, 1-(3,3-Dimethylbutyl)-3-(2-fluoro-4-methyl-5-(7-methyl-2-((2-morpholinoethyl)amino)pyrido[2,3-d]pyrimidin-6-yl)phenyl)ure]	< 150	< 100	100 to 1000
Cc1cc(F)c(NC(=O)NCCC(C)(C)C)cc1-c1cc2cnc(NCc3cn(C)cn3)nc2nc1C [Example 22, 1-(3,3-Dimethylbutyl)-3-(2-fluoro-4-methyl-5-(7-methyl-2-(((1-methyl-1H-imidazol-4-yl)methyl)amino)pyrido[2,3-d]pyrimidin-6-yl)phenyl)urea]	< 150	< 100	100 to 1000
Cc1cc(F)c(NC(=O)NCCC2(C)CC2)cc1-c1cc2cnc(N)nc2nc1C [Example 23, 1-(5-(2-Amino-7-methylpyrido[2,3-d]pyrimidin-6-yl)-2-fluoro-4-methylphenyl)-3-(2-(1-methylcyclopropyl)ethyl)urea]	< 150	< 100	100 to 1000
CNc1ncc2cc(-c3cc(NC(=O)NCCC4(C)CC4)c(F)cc3C)c(C)nc2n1 [Example 24, 1-(2-Fluoro-4-methyl-5-(7-methyl-2-(methylamino)pyrido[2,3-d]pyrimidin-6-yl)phenyl)-3-(2-(1-methylcyclopropyl)ethyl)urea]	< 150	< 100	100 to 1000
Cc1cc(F)c(NC(=O)NCCC(C)(C)F)cc1-c1cc2cnc(NC3COC3)nc2nc1C [Example 25, 1-(3-Fluoro-3-methylbutyl)-3-(2-fluoro-4-methyl-5-(7-methyl-2-(oxetan-3-ylamino)pyrido[2,3-d]pyrimidin-6-yl)phenyl)urea]	< 150	< 100	100 to 1000
CCNc1ncc2cc(-c3cc(NC(=O)NCCC(C)(C)F)c(F)cc3C)c(C)nc2n1 [Example 26, 1-(5-(2-(Ethylamino)-7-methylpyrido[2,3-d]pyrimidin-6-yl)-2-fluoro-4-methylphenyl)-3-(3-fluoro-3-methylbutyl)urea]	< 150	< 100	1000 to 10000
CNc1ncc2cc(-c3cc(NC(=O)NCCC(C)(C)C(F)(F)F)c(F)cc3C)c(C)nc2n1 [Example 27, 1-(2-Fluoro-4-methyl-5-(7-methyl-2-(methylamino)pyrido[2,3-d]pyrimidin-6-yl)phenyl)-3-(4,4,4-trifluoro-3,3-dimethylbutyl)urea]	< 150	< 100	100 to 1000
Cc1cc(F)c(NC(=O)NCCC(C)(C)F)cc1-c1cc2cnc(N)nc2nc1C [Example 28, 1-(5-(2-Amino-7-methylpyrido[2,3-d]pyrimidin-6-yl)-2-fluoro-4-methylphenyl)-3-(3-fluoro-3-methylbutyl)urea]	< 150	100 to 1000	1000 to 10000
Cc1cc(F)c(NC(=O)NCCC(C)(C)F)cc1-c1cc2cnc(NCCO)nc2nc1C [Example 29, 1-(3-Fluoro-3-methylbutyl)-3-(2-fluoro-5-(2-((2-hydroxyethyl)amino)-7-methylpyrido[2,3-d]pyrimidin-6-yl)-4-methylphenyl)urea]	< 150	100 to 1000	1000 to 10000
CNc1ncc2cc(-c3cc(NC(=O)NCCC4(C(F)(F)F)CC4)c(F)cc3C)c(C)nc2n1 [Example 30, 1-(2-Fluoro-4-methyl-5-(7-methyl-2-(methylamino)pyrido[2,3-d]pyrimidin-6-yl)phenyl)-3-(2-(1-(trifluoromethyl)cyclopropyl)ethyl)urea]	< 150	< 100	100 to 1000
COCCNc1ncc2cc(-c3cc(NC(=O)NC4CC(C)(C)C4)c(F)cc3C)c(C)nc2n1 [Example 31, 1-(3,3-Dimethylcyclobutyl)-3-(2-fluoro-5-(2-((2-methoxyethyl)amino)-7-methylpyrido[2,3-d]pyrimidin-6-yl)-4-methylphenyl)urea]	< 150	< 100	100 to 1000
CNc1ncc2cc(-c3cc(NC(=O)NCCC(C)(C)C)c(F)cc3Br)c(C)nc2n1 [Example 32, 1-(4-Bromo-2-fluoro-5-(7-methyl-2-(methylamino)pyrido[2,3-d]pyrimidin-6-yl)phenyl)-3-(3,3-dimethylbutyl)urea]	< 150	< 100	100 to 1000
CC(=O)Nc1ncc2cc(-c3cc(NC(=O)NCCC(C)(C)C)c(F)cc3C)c(C)nc2n1 [Example 33, N-(6-(5-(3-(3,3-Dimethylbutyl)ureido)-4-fluoro-2-methylphenyl)-7-methylpyrido[2,3-d]pyrimidin-2-yl)acetamide]	< 150	< 100	100 to 1000
CNc1ncc2cc(-c3cc(NC(=O)NCCC(C)(C)F)c(F)cc3C)cnc2n1 [Example 34, 1-(3-Fluoro-3-methyl-butyl)-3-[2-fluoro-4-methyl-5-(2-methylaminopyrido[2,3-d]pyrimidin-6-yl)phenyl]urea]	< 150	< 100	100 to 1000
CNc1ncc2cc(-c3cc(NC(=O)NCCC(C)(C)C)c(F)cc3C)cnc2n1 [Example 35, 1-(3,3-Dimethylbutyl)-3-[2-fluoro-4-methyl-5-(2-methylaminopyrido[2,3-d]pyrimidin-6-yl)phenyl]urea]	< 150	< 100	100 to 1000
CNc1ncc2cc(-c3cc(NC(=O)NCCC(C)(C)C)c(F)cc3F)cnc2n1 [Example 36, 1-(2,4-Difluoro-5-(2-(methylamino)pyrido[2,3-d]pyrimidin-6-yl)phenyl)-3-(3,3-dimethylbutyl)urea methanesulfonate]	< 150	100 to 1000	1000 to 10000
